According to patent publication US7387800B2, “Sesquiterpenoid derivatives having adipocyte differentiation inhibitory effect” (Meiji Dairies Corporation, priority 2001, dated 2008):

System: Mouse adipocyte precursors (3T3-L1)
Test: Inhibition of insulin-induced adipocyte differentiation, acetic acid (14C-CH3COOH) incorporation activity as index
Assay type: cell-based
Conditions: 3T3-L1 differentiation into adipocytes; compound added with insulin; FIG. 4
Description: Whether Calea extract solution has an inhibitory activity on adipocyte differentiation induced by the addition of insulin was investigated. First, the aerial portion of Calea (170 g) was ground, and extracted by heated reflux using acetone (24 hours×2 times) to produce Calea extract solution. The extracted solution was filtered, and then concentrated under reduced pressure to yield a concentrated extract. Mouse adipocyte precursors (3T3-L1) obtained from Human Science Research Resources Bank was used as the adipocyte in the present experiment. Normal successive cultivation was performed using Dulbecco's modified Eagle MEM medium containing 10% calf serum (CS) at 37° C. in the presence of 5% CO2. […]
In the system where acetic acid incorporation activity was used as an index, first the cells were placed into a 24-well plate at a density of 4.2×10^4 cell/well. […] Using a liquid scintillation counter, radioactivity of the isopropanol fraction (adipose component) was measured. […] Then, protein quantification was performed according to the Bradford dye-binding method. […]

SMILES | incorporation inhibitory activity (acetic acid incorporation), result in words
C=C(C)C(=O)O[C@H]1[C@H]2C(=C)C(=O)O[C@@H]2C[C@@H](C)[C@@H]2O[C@@H]2C(=O)[C@@](C)(O)[C@@H]1OC(=O)C(=C)C [compound 6] | high incorporation inhibitory activity
C=C(C)C(=O)O[C@H]1[C@H]2C(=C)C(=O)O[C@@H]2C[C@@H](C)/C=C\C(=O)[C@@](C)(O)[C@@H]1OC(=O)C(=C)C [compound 11] | high incorporation inhibitory activity
